From patent US20050267030A1, “Use of deltaPKC peptides for modulation of reactive oxygen species” (priority 2004, published 2005)
Ends that are not written are not given here.

Key:
[1] = system: rat vascular smooth muscle cells; test: Production of reactive oxygen species (superoxide) in vitro, loss of tempoamine signal by electron spin resonance; format: cell-based; details: FIG. 2
Procedure: Example 1 details a study where inhibitors and activators of δPKC were administered to rat vascular smooth muscle cells in vitro. Cells were incubated in presence of (1) the agonist Tat-conjugated peptide ψδRACK (SEQ ID NO:5); (2) phorbol 12-myristate 13-acetate (PMA); or (3) the antagonist Tat-conjugated peptide δV1-1 (SEQ ID NO:3) plus PMA. A control cell sample was left untreated. Tempoamine ((2,2,6,6-tetramethyl-1-piperidi-nyloxy-4-amine)) was added to each culture and the loss of tempoamine signal was measured by electron spin resonance to measure superoxide production.
PMA, a non-isozyme specific activator of PKC, stimulated a 3-4 fold increase in ROS in the cells. […] Inhibition of this PKC isoform caused a decrease in PMA-stimulated ROS production.
Rat vascular smooth muscle cells were harvested from Zucker lean aortas by enzymatic digestion and cultured in Dulbecco's modified eagle's medium with 10% fetal bovine serum and penicillin/streptomycin under standard tissue culture conditions. The cells were incubated in the presence tempoamine ((2,2,6,6-tetramethyl-1-piperidi-nyloxy4-amine)) (100 μM) and in the presence of (1) the agonist Tat-conjugated peptide ψδRACK (10 μM); (2) phorbol 12-myristate 13-acetate (PMA, 500 ng/mL); or (3) the antagonist Tat-conjugated peptide δV1-1 (10 μM) plus PMA (500 ng/mL). A control cell sample was left untreated. The loss of tempoamine signal was measured by electron spin resonance to measure superoxide production.

[2] = system: Zucker obese rats (fa/fa); test: ROS (superoxide) production in aorta tissue homogenates of Zucker rats, electron spin resonance; format: in vivo, rat; details: Zucker obese rats treated, versus Zucker lean control, FIG. 3A
Procedure: Tissue homogenates from the aortas of Zucker obese rats and of Zucker lean (Fa/fa) rats were prepared and analyzed for superoxide production using electron spin resonance with a tempomaine probe.

TGF-β1 = TGF-β1 gene expression in rat vascular smooth muscle cells, TaqMan real time PCR; format: cell-based
Procedure: (§1) In another study, described in Example 4, the gene transcriptional effects of insulin and the selective inhibition of PKC isoforms was examined using real-time polymerase chain reaction (TaqMan® PCR). In vitro cells were incubated with insulin and in the presence or absence of a δPKC inhibitor, δV1-1 peptide. The expression of TGF-β and core binding factor α-1 (Cbf α-1) were monitored using TaqMan® real time PCR. Rat vascular smooth muscle cells passages three through seven were prepared as describe in Example 1B. The cells were incubated with insulin (100 nm, SourceLife Technologies) or with the δPKC inhibitor peptide δV1-1, prepared as described in Example 1A. RNA isolation and purification were performed as described in Example 2 and TaqMan® real time PCR was used to analyze the relative quantity TGF-β1 and core binding factor α-1 (Cbf α-1). PCR primers and probes were obtained commercially from Applied Biosystems, Inc. and the PCR was performed on an Applied Biosystems ABI Prism 7700.

Cbfa-1 = Cbfa-1 gene expression in rat vascular smooth muscle cells, TaqMan real time PCR; format: cell-based; details: cells incubated with Tat-conjugated peptide versus untreated control, FIG. 5C
Procedure: as §1

δPKC = test: Translocation of δPKC in cells incubated with insulin, Western blot of cytosol and membrane fractions; format: cell-based, rat; details: bovine insulin 100 nM, up to 24 hours, semi-quantitative from Western blot, FIG. 4B
Procedure: Example 3 describes a study conducted to examine to role of PKC isozymes, and in particular δPKC, in vascular fibrosis, which is accelerated during the insulin-resistant, pre-diabetic state in animals. In this study, rat vascular smooth muscle cells were incubated with bovine insulin. Translocation of PKC isozymes was assessed by Western blot analysis of the cystosolic and membrane (particulate) fractions of the cells. The subcellular localization of various PKC isozymes was assessed by […] by probing the blot with isozyme specific antibodies, such as anti-δPKC, anti-αPKC, and anti-ε PKC, etc. […]
Rat vascular smooth muscle cells passages three through seven were prepared as described in Example 1 B. The cells were incubated with bovine insulin (100 nM) for time periods of up to 24 hours. Activation of various PKC isozymes was analyzed by harvesting the cells and separating the protein into cytosolic and membrane (particulate) fractions and examining both fractions by Western blot using anti-δPKC, anti-αPKC, and anti-ε PKC for the presence of different PKC isoforms. The activity of the isoform was assessed as amount of PKC in the membrane fraction divided by the total amount of protein in both fractions (cytosol and membrane), normalized to control.

Molecule: CCCCCCCCCCCCCC(=O)O[C@@H]1[C@@H](C)[C@@]2(O)[C@@H](C=C(CO)C[C@]3(O)C(=O)C(C)=C[C@@H]23)[C@@H]2C(C)(C)[C@]12OC(C)=O [PMA, phorbol 12-myristate 13-acetate, reference compound]
- increase in ROS in the cells ([1]; PMA 500 ng/mL, tempoamine 100 μM): 3-4 fold

Molecule: O=C1CSC(=O)N1 [TZD1]
- ROS production in aorta homogenates [2]: brought the ROS production down to control levels

Molecule: MRAAEDPM (not fully specified; also: Tat conjugated; listed as Rattus norvegicus) [ψδRACK, δPKC agonist peptide, amino acids 74-81 of δPKC]
- production of ROS ([1]; Tat-conjugated peptide 10 μM, tempoamine 100 μM, versus untreated control): increased production of ROS

Molecule: SFNSYELGSL (not fully specified; also: Tat conjugated; listed as Rattus norvegicus) [δV1-1, δPKC antagonist peptide, amino acids 8-17 of δPKC]
- ROS production stimulated by PMA ([1]; Tat-conjugated peptide 10 μM co-incubated with PMA 500 ng/mL): effective to reverse or inhibit a significant part of the ROS production stimulated by PMA
- TGF-β1 expression (TGF-β1; cells incubated with Tat-conjugated peptide versus untreated control, FIG. 5B): inhibited
- Cbfa-1 gene expression (Cbfa-1): inhibited

Molecule: insulin: bovine insulin incubated with rat vascular smooth muscle cells
- relative δPKC activity (membrane fraction / total, normalized to control) (δPKC): about 1.7
- normalized TGF-β expression (TGF-β1; cells incubated with insulin (100 nm) versus untreated control, FIG. 5A): did not appear to stimulate
